The subject of series [1] is Rattus norvegicus. In words: Gastrointestinal toxicity in Rattus norvegicus albino (rat) assessed as ulcer index at 25 mg/kg, po for 3 days measured 2 hr after last dose. Conditions: in vivo. The arrangement: dose 25 mg/kg, route oral. Type of series: organism-based.
For series [2], the system named is Rattus norvegicus. In words: Anti-inflammatory activity in Rattus norvegicus albino (rat) assessed as inhibition of carrageenan-induced paw edema at 25 mg/kg, ip pretreated 30 min prior to carrageenan administration measured 4 hr after carrageenan challenge (reference value: 0%). Type of series: functional. Conditions: route intraperitoneal. In general terms: Carrageenan injected into the paw causes an acute inflammation.

For series [3], the system named is Rattus norvegicus. In words: Anti-inflammatory activity in Rattus norvegicus albino (rat) assessed as inhibition of carrageenan-induced paw edema at 25 mg/kg, ip pretreated 30 min prior to carrageenan administration measured 3 hr after carrageenan challenge (reference value: 0%). Type of series: functional. To be noted: route intraperitoneal.
The test system of series [4] is Rattus norvegicus. In words: Anti-inflammatory activity in Rattus norvegicus albino (rat) assessed as inhibition of carrageenan-induced paw edema at 25 mg/kg, ip pretreated 30 min prior to carrageenan administration measured 2 hr after carrageenan challenge (reference value: 0%). It is filed as functional. To be noted: route intraperitoneal.
Series [5] has as its system Rattus norvegicus. In words: Anti-inflammatory activity in Rattus norvegicus albino (rat) assessed as inhibition of carrageenan-induced paw edema at 25 mg/kg, ip pretreated 30 min prior to carrageenan administration measured 1 hr after carrageenan challenge (reference value: 0%). It is filed as functional. Conditions: route intraperitoneal.
The nature of series [6]: Toxicity in ip dosed Mus musculus (mouse) after 24 hr. It is filed as organism-based. Conditions: in vivo.
Series [7] concerns Mus musculus. Put plainly: Analgesic activity in Mus musculus (mouse) assessed as inhibition of p-benzoquinone-induced writhing at 25 mg/kg, ip pretreated 30 min prior to carrageenan administration measured 4 hr after carrageenan challenge (reference value: 0%). Type of series: functional. To be noted: route intraperitoneal. (An intraperitoneal irritant provokes the stretching counted in writhing tests.)

Series [8] relates to Mus musculus. In words: Analgesic activity in Mus musculus (mouse) assessed as inhibition of p-benzoquinone-induced writhing at 25 mg/kg, ip pretreated 30 min prior to carrageenan administration measured 3 hr after carrageenan challenge (reference value: 0%). Type of series: functional. To be noted: route intraperitoneal.
The subject of series [9] is Mus musculus. In words: Analgesic activity in Mus musculus (mouse) assessed as inhibition of p-benzoquinone-induced writhing at 25 mg/kg, ip pretreated 30 min prior to carrageenan administration measured 2 hr after carrageenan challenge (reference value: 0%). Type of series: functional. Conditions: route intraperitoneal.
The test system of series [10] is Mus musculus. In words: Analgesic activity in Mus musculus (mouse) assessed as inhibition of p-benzoquinone-induced writhing at 25 mg/kg, ip pretreated 30 min prior to carrageenan administration measured 1 hr after carrageenan challenge (reference value: 0%). Conditions: route intraperitoneal. Type of series: functional.

Consider 21 compounds from ChEMBL document CHEMBL3045171, “Design and synthesis of some pyrazole derivatives of expected anti-inflammatory and analgesic activities” (Med Chem Res, 2012).

What is called inhibition in vivo is the change of the read-out against control, counted positive when it falls. The LD50 is the dose expected to kill half of the subjects tested. Read a high LD50 as a less toxic substance.

As for `CC(C)Cc1ccc(C(C)C(=O)O)cc1` (stereo unspecified) [IBUPROFEN], the UI in the series with Rattus norvegicus [1] amounted to 22.92. For the same compound, the inhibition in vivo at 25 mg/kg with Rattus norvegicus [2] turned out to be 76.1%; with Rattus norvegicus [3] it was 66.7%; in the series on Rattus norvegicus [4] it was 63.5%; with Rattus norvegicus [5], 55.4%.

In series [6], `CCOC(=O)c1nn(-c2ccccc2)c(-c2ccc(OC)cc2OC)c1C` registered an LD50 at 24 h of 278 mg/kg. Besides, the inhibition in vivo at 25 mg/kg with Rattus norvegicus [2] amounted to 5.77%; in the series with Rattus norvegicus [3] it was 5.81%; with Rattus norvegicus [4], 4.86%; in the series on Rattus norvegicus [5] it was 4.9%.

`C=C(C)C(=O)c1ccc(OC)cc1OC` displayed an LD50 at 24 h in series [6] of 278 mg/kg. Moreover, the UI with Rattus norvegicus [1] came out at 15.24. Moreover, the inhibition in vivo at 25 mg/kg was 0% in the series with Mus musculus [7]; 0% in the series on Mus musculus [8]; 20% with Mus musculus [9]; 20% with Mus musculus [10]; 32.3% in the series on Rattus norvegicus [2]; 31.5% in the series with Rattus norvegicus [3]. Moreover, the values for the inhibition in vivo at 25 mg/kg with Rattus norvegicus [4] and in the series with Rattus norvegicus [5] were 29.8% and 23.7%, respectively.

In turn, `CCOC(=O)c1nn(-c2ccc(Cl)cc2)c(-c2ccc(OC)cc2OC)c1C` registered a 50% lethal dose (LD50) at 24 h in series [6] of 248 mg/kg. Moreover, the inhibition in vivo at 25 mg/kg with Mus musculus [7] was found to be 0%; in the series with Mus musculus [8], 20%; in the series on Mus musculus [9], 40%; in the series on Mus musculus [10] it was 40%; with Rattus norvegicus [2] it was 2.38%; with Rattus norvegicus [3], 2.22%. Also, the inhibition in vivo at 25 mg/kg was determined as 1.43% in the series with Rattus norvegicus [4] and 0% with Rattus norvegicus [5].

Compound `COc1ccc(C2=NN(C(=O)NS(=O)(=O)c3ccc(Cl)cc3)CC2c2ccccc2)c(OC)c1` (stereo unspecified) had an LD50 at 24 h in [6] of 248 mg/kg. Further, the inhibition in vivo at 25 mg/kg with Mus musculus [7] is 0%; in the series with Mus musculus [8], 20%; in the series on Mus musculus [9], 40%; in the series with Mus musculus [10], 40%; in the series on Rattus norvegicus [2], 23.6%; with Rattus norvegicus [3] it was 25.7%. Also, the inhibition in vivo at 25 mg/kg in the series on Rattus norvegicus [4] worked out at 27.3%; with Rattus norvegicus [5], 24.1%.

The compound `COc1ccc(C2=NNCC2c2ccccc2)c(OC)c1` (stereo unspecified) gave an LD50 at 24 h in [6] of 278 mg/kg. Besides, the inhibition in vivo at 25 mg/kg in the series with Rattus norvegicus [2] worked out at 1.92%; with Rattus norvegicus [3], 1.8%; with Rattus norvegicus [4], 0%; in the series on Rattus norvegicus [5], 0%.

In turn, `Cc1ccc(-c2cc(C(F)(F)F)nn2-c2ccc(S(N)(=O)=O)cc2)cc1` [CELECOXIB] displayed a 50% lethal dose (LD50) at 24 h in series [6] of 250 mg/kg. The UI with Rattus norvegicus [1] turned out to be 8.4. For the same compound, the inhibition in vivo at 25 mg/kg came out at 80% in the series on Mus musculus [7]; 80% with Mus musculus [8]; 100% in the series on Mus musculus [9]; 100% with Mus musculus [10]; 62.8% in the series on Rattus norvegicus [2]; 64% with Rattus norvegicus [3]. Further, the inhibition in vivo at 25 mg/kg stood at 61.1% in the series on Rattus norvegicus [4] and 54.2% in the series on Rattus norvegicus [5].

With `COc1ccc(C2=NN(C(=O)NS(=O)(=O)c3ccc(C)cc3)CC2c2ccccc2)c(OC)c1` (stereo unspecified), the LD50 at 24 h in series [6] came to 292 mg/kg. Moreover, the inhibition in vivo at 25 mg/kg with Rattus norvegicus [2] was found to be 7.21%; in the series with Rattus norvegicus [3] it was 4.83%; in the series on Rattus norvegicus [4], 6.33%; with Rattus norvegicus [5], 4.9%.

The compound `CCOC(=O)c1nn(-c2ccc(Cl)cc2)c(-c2ccc(OC)cc2OC)c1-c1ccccc1` had an LD50 at 24 h in series [6] of 278 mg/kg. Moreover, the inhibition in vivo at 25 mg/kg is 15.4% in the series with Rattus norvegicus [2], 15% with Rattus norvegicus [3], 12.7% in the series on Rattus norvegicus [4] and 6.89% in the series on Rattus norvegicus [5].

In the case of `C=C(C(=O)c1ccc(OC)cc1OC)c1ccccc1`, in series [6], the LD50 at 24 h is 232 mg/kg. In addition, the inhibition in vivo at 25 mg/kg was found to be 2.9% in the series on Rattus norvegicus [2], 1.92% in the series on Rattus norvegicus [3], 1.43% with Rattus norvegicus [4] and 0% with Rattus norvegicus [5].

As to `COc1ccc(C2=NN(C(=S)NC(=O)c3ccc(Cl)cc3)CC2c2ccccc2)c(OC)c1` (stereo unspecified), the LD50 at 24 h in series [6] was 292 mg/kg. Moreover, the inhibition in vivo at 25 mg/kg in the series on Rattus norvegicus [2] came to 1.92%; in the series with Rattus norvegicus [3], 1.43%; with Rattus norvegicus [4], 0%; in the series on Rattus norvegicus [5], 0%.

In turn, `COc1ccc(C2=NN(C(=O)NS(=O)(=O)c3ccc(C)cc3)CC2C)c(OC)c1` (stereo unspecified) gave an LD50 at 24 h in [6] of 232 mg/kg. Moreover, the inhibition in vivo at 25 mg/kg in the series on Mus musculus [7] came out at 0%; in the series with Mus musculus [8], 0%; in the series on Mus musculus [9], 20%; with Mus musculus [10] it was 20%; with Rattus norvegicus [2] it was 25.1%; with Rattus norvegicus [3], 25.2%. The inhibition in vivo at 25 mg/kg came out at 27.3% in the series with Rattus norvegicus [4] and 23.7% in the series on Rattus norvegicus [5].

As for `CCOC(=O)c1nn(-c2ccccc2)c(-c2ccc(OC)cc2OC)c1-c1ccccc1`, the median lethal dose (LD50) at 24 h in [6] was 292 mg/kg. Further, the inhibition in vivo at 25 mg/kg amounted to 20.2% in the series with Rattus norvegicus [2], 20.8% with Rattus norvegicus [3], 20.5% in the series with Rattus norvegicus [4] and 17.7% with Rattus norvegicus [5].

`CCOC(=O)C(=O)C(C)C(=O)c1ccc(OC)cc1OC` (stereo unspecified) showed a 50% lethal dose (LD50) at 24 h in series [6] of 278 mg/kg. In addition, the inhibition in vivo at 25 mg/kg with Rattus norvegicus [2] is 24.6%; with Rattus norvegicus [3] it was 26.1%; with Rattus norvegicus [4], 27.2%; in the series on Rattus norvegicus [5] it was 23.7%.

In the case of `COc1ccc(C2=NN(C(=O)NS(=O)(=O)c3ccc(Cl)cc3)CC2C)c(OC)c1` (stereo unspecified), in series [6], the median lethal dose (LD50) at 24 h amounted to 248 mg/kg. Also, the inhibition in vivo at 25 mg/kg with Rattus norvegicus [2] was found to be 18.8%; with Rattus norvegicus [3] it was 16.4%; with Rattus norvegicus [4], 14.6%; with Rattus norvegicus [5] it was 12.2%.

`COc1ccc(-c2c(C)c(C(=O)O)nn2-c2ccc(Cl)cc2)c(OC)c1` yielded an LD50 at 24 h in [6] of 232 mg/kg. In addition, the inhibition in vivo at 25 mg/kg came out at 0% with Mus musculus [7]; 20% with Mus musculus [8]; 20% in the series on Mus musculus [9]; 40% with Mus musculus [10]; 22.7% with Rattus norvegicus [2]; 22.8% in the series with Rattus norvegicus [3]. The inhibition in vivo at 25 mg/kg in the series with Rattus norvegicus [4] came out at 28.4%; in the series on Rattus norvegicus [5], 24.7%.

Regarding `COc1ccc(C2=NNCC2C)c(OC)c1` (stereo unspecified), the LD50 at 24 h in series [6] is 292 mg/kg. Also, in the series with Rattus norvegicus [1], the UI came to 11.67. Further, the inhibition in vivo at 25 mg/kg in the series on Mus musculus [7] amounted to 20%; in the series with Mus musculus [8], 40%; in the series with Mus musculus [9] it was 60%; with Mus musculus [10] it was 80%; in the series on Rattus norvegicus [2], 44.4%; in the series on Rattus norvegicus [3] it was 45.1%. The inhibition in vivo at 25 mg/kg with Rattus norvegicus [4] came out at 44.5%; with Rattus norvegicus [5], 40.4%.

In turn, `COc1ccc(-c2c(-c3ccccc3)c(C(=O)O)nn2-c2ccc(Cl)cc2)c(OC)c1` came in with an LD50 at 24 h in [6] of 232 mg/kg. Further, in the series on Rattus norvegicus [1], the UI came out at 11.56. The inhibition in vivo at 25 mg/kg is 20% with Mus musculus [7]; 40% in the series with Mus musculus [8]; 60% with Mus musculus [9]; 80% with Mus musculus [10]; 42.5% in the series with Rattus norvegicus [2]; 45.5% in the series on Rattus norvegicus [3]. Besides, the figures for the inhibition in vivo at 25 mg/kg in the series on Rattus norvegicus [4] and in the series on Rattus norvegicus [5] were 42% and 37%, respectively.

`COc1ccc(C2=NN(C(=S)NC(=O)c3ccc(Cl)cc3)CC2C)c(OC)c1` (stereo unspecified): the LD50 at 24 h in series [6] came to 232 mg/kg. In addition, the inhibition in vivo at 25 mg/kg is 1.43% with Rattus norvegicus [2], 1.94% with Rattus norvegicus [3], 0% in the series on Rattus norvegicus [4] and 0% in the series with Rattus norvegicus [5].

Regarding `COc1ccc(C(=O)Cc2ccccc2)c(OC)c1`, the LD50 at 24 h in series [6] was determined as 278 mg/kg. Besides, the inhibition in vivo at 25 mg/kg was 15.9% in the series with Rattus norvegicus [2], 15% in the series with Rattus norvegicus [3], 11.2% in the series with Rattus norvegicus [4] and 5.91% in the series with Rattus norvegicus [5].

In turn, `CCOC(=O)C(=O)C(C(=O)c1ccc(OC)cc1OC)c1ccccc1` (stereo unspecified) showed an LD50 at 24 h in series [6] of 278 mg/kg. In addition, the inhibition in vivo at 25 mg/kg with Rattus norvegicus [2] was 21.2%; in the series on Rattus norvegicus [3], 20.8%; in the series with Rattus norvegicus [4], 20%; in the series with Rattus norvegicus [5] it was 15.1%.
